Experimental data: patent US12528777B2, “Quinazolinones derivatives for treatment of non-alcoholic fatty liver disease, preparation and use thereof” (Council of Scientific and Industrial Research, priority 2020, dated 2026)
Entries after “also recorded” stand apart in the source; their conditions may differ.

Assays:
HepG2 cells [1] = assay: Confocal microscopy: lipid droplets in oleate induced HepG2 cells; format: cell-based; design: key to Reduction in Lipid Droplets: + = slight or in insignificant; ++ = Moderate; +++ and ++++ = active; +++ and ++++ = active; +++++ = very active; conditions: for Number of lipid droplets: HepG2 cells, 250 μM oleate induction; for Reduction in Lipid Droplets: oleate induced HepG2 cells, score
Method in brief: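 HepG2 cells were loaded with 250 μM oleate and given compound in DMSO (10 μM screen; 10 nM–5 μM dose series) for 24 h; BSA as negative control. Lipid droplets stained with BODIPY/Hoechst, imaged confocally; mean droplets per cell counted over ~20 cells versus oleate-only cells.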

ATGL = assay: Western blot of ATGL level in HepG2 cells; format: cell-based; design: key to Increase in ATGL level: + = slight or in insignificant; ++ = Moderate; +++ and ++++ = active; +++ and ++++ = active; +++++ = very active; conditions: for Increase in ATGL level: HepG2 cells, score; for Increase in ATGL level / ATGL level in HepG2 cells: western blot; for ATGL level in HepG2 cells: 24 hours, 10 μM screening or 50 nM-5 μM dose dependent; for EC50: fold increase of ATGL by densitometry, as % of 1.6 fold maximum with siCOP1, doses 10-5000 nM, read-out: EC50 (in-vitro)
Method in brief: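 HepG2 cells were treated with compound 24 h (10 μM screen; 50 nM–5 μM dose series) and lysed. 30 μg protein was western blotted for ATGL, with actin as loading reference. ATGL increase was expressed as percent of the 1.6-fold siCOP1 maximum and plotted against log concentration for EC50.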

HepG2 cells [2] = assay: Basal oxygen consumption rate (OCR) by Seahorse; format: cell-based; conditions: 5 μM, 24 hours
Protocol: HepG2 cells were plated in Seahorse cell culture microplates (24 well). Cells were treated with 5 μM of compounds 9, 107, 238 and 238a for 24 hours. The calibrator plate was dipped in the calibrator solution and incubated overnight at 37° C. in a non-CO2 incubator. The next day, cells were washed with Agilent Seahorse XF Base Medium, Minimal DMEM twice, making sure to leave at least 50 μl of media in the wells and incubated for 1 hour at 37° C. in a non-CO2 incubator. Following this, oxygen consumption rate was measured in the Seahorse instrument. FIG. 12 illustrates basal oxygen consumption rate of compounds 9, 107, 238a, and 238.

Plasma stability assay = format: in vitro ADME, human; conditions: for Mean % remaining at 2 hrs in human Plasma: 1 μM, 37° C., 120 min, LC-MS/MS; for Plasma stability: human plasma, after 2 hours, with respect to Propantheline
Protocol: 1 mM Stock of test compound was prepared from 10 mM initial stock solution of compounds by diluting 10 μL of 10 mM stock with 90 μL of DMSO. Then 10 μL of 1 mM stock was diluted with 90 µL of DMSO to give 100 μM concentration. The frozen plasma was thawed at room temperature and centrifuged at 1400 rpm at 4° C., for 15 minutes. Approximately […] of the clear supernatant fraction was transferred to a separate tube and was used for the assay. Final working stock of 1 μM was prepared by diluting 3 μL of 100 μM with 297 μL of plasma. Plasma containing the test compound was incubated for 120 min at 37° C. in shaker with 500 rpm. 50 μL of aliquot of sample at 0, 15, 30, 60 and 120 minutes were precipitated with 150 μL of acetonitrile containing internal standard and centrifuged at 4000 rpm at 4° C. for 20 minutes. 120 μL of supernatant was diluted with 120 μL of water and analyzed by LC-MS/MS.

Mean % remaining at 2 hrs in human Plasma (Plasma stability assay) [%]	Plasma stability (Plasma stability assay)	EC50 (ATGL) [nM]	Structure (SMILES)	Number of lipid droplets (HepG2 cells [1])	Reduction in Lipid Droplets (HepG2 cells [1])	Increase in ATGL level (ATGL)	ATGL level in HepG2 cells (ATGL)	Basal oxygen consumption rate (HepG2 cells [2])
16.9	lower plasma stability	–	COCCn1cnc2ccc(NC(=O)Nc3cccc(C(C)=O)c3)cc2c1=O [Compound 9, 1-(3-acetylphenyl)-3-(3-(2-methoxyethyl)-4-oxo-3,4-dihydroquinazolin-6-yl)urea]	decrease in the number of lipid droplets	++++	+++++	increased ATGL level	higher oxygen consumption rate compared to control; also recorded: increase in the basal OCR values
–	–	–	COCCn1c(C)nc2ccc(NC(=O)Nc3cccc(C(C)=O)c3)cc2c1=O [Compound 107, 1-(3-acetylphenyl)-3-(3-(2-methoxyethyl)-2-methyl-4-oxo-3,4-dihydroquinazolin-6-yl)urea]	–	++++	++++	–	higher oxygen consumption rate compared to control; also recorded: increase in the basal OCR values
55.50	good plasma stability	1.19	CC(=O)c1cccc(NC(=O)Nc2ccc3ncn(CCCN4CCOCC4)c(=O)c3c2)c1 [Compound 139, 1-(3-acetylphenyl)-3-(3-(3-morpholinopropyl)-4-oxo-3,4-dihydroquinazolin-6-yl)urea]	reduction in lipid droplets	+++	+++	increased ATGL level; also recorded: some sort of increase in ATGL level	–
20.6	lower plasma stability	–	COCC(C)n1cnc2ccc(NC(=O)Nc3cccc(C(C)=O)c3)cc2c1=O (stereo not shown) [Compound 179, 1-(3-acetylphenyl)-3-(3-(1-methoxypropan-2-yl)-4-oxo-3,4-dihydroquinazolin-6-yl)urea]	–	–	+++++	–	–
80.70	good plasma stability	30.2	COCCn1c(-c2cccnc2)nc2ccc(NC(=O)Nc3cccc(C(C)=O)c3)cc2c1=O [Compound 215, 1-(3-acetylphenyl)-3-(3-(2-methoxyethyl)-4-oxo-2-(pyridin-3-yl)-3,4-dihydroquinazolin-6-yl)urea]	–	–	–	increased ATGL level	–
73.9	good plasma stability	29.5	COCCn1c(-c2ccncc2)nc2ccc(NC(=O)Nc3cccc(C(C)=O)c3)cc2c1=O [Compound 219, 1-(3-acetylphenyl)-3-(3-(2-methoxyethyl)-4-oxo-2-(pyridin-4-yl)-3,4-dihydroquinazolin-6-yl)urea]	–	–	–	increased ATGL level	–
98.1	good plasma stability	1.02	COCCn1c(CN2CCCCC2)nc2ccc(NC(=O)Nc3cccc(C(C)=O)c3)cc2c1=O [Compound 238, 1-(3-acetylphenyl)-3-(3-(2-methoxyethyl)-4-oxo-2-(piperidin-1-ylmethyl)-3,4-dihydroquinazolin-6-yl)urea]	–	–	+++++	increased ATGL level; also recorded: most potent in increasing ATGL and COP1 levels; also recorded: increase in ATGL and COP1 levels	higher oxygen consumption rate compared to control; also recorded: increase in the basal OCR values
